Assay results as given in US20240270692A1, “S(+) FORM OF 4-(2,4-DIFLUOROPHENYL)-2-(1H-INDOL-3-YL)-4-OXO-BUTANOIC ACID” (TOHOKU UNIVERSITY, priority 2021, published 2024).
Entries after “also recorded” stand apart in the source; their conditions may differ. Like-named read-outs stand apart in the source and are kept apart here.

What was measured:
[1] = In vivo administration test 1: intravenous administration, plasma concentration by LC-MS/MS; parameters: species or system cynomolgus monkeys; settings: for half-life / AUC / ke: male cynomolgus monkeys, intravenous, single dose 1 mg/kg, plasma
Method: Each enantiomer (S(+) form or R(−) form) of MA5 was dissolved in a mixed solution of physiological saline and 0.1 N sodium hydroxide (9:1), and filtered and sterilized by using a 0.22 μm filter to prepare a solution containing 2 mL/kg of each enantiomer of MA5. Next, the solution containing each enantiomer of MA5 was intravenously administered to each of three 4- to 5-year-old male cynomolgus monkeys at a single dose of 1 mg/kg. As a control, a solution containing no enantiomer of MA5 was also administered in the same manner. […] The analysis conditions for LC-MS/MS are as follows.
As an ionization unit, an apparatus in which NANOSPACESI-2 (manufactured by OSAKA SODA CO., LTD.) as a high-performance liquid chromatograph was connected to a triple quadrupole mass spectrometer (TSQ Quantum Ultra, manufactured by Thermo Fisher Scientific Inc.) equipped with an ESI probe was used. The S(+) form of MA5 (S-(+)-MA5) and the R(−) form of MA5 (R-(−)-MA5), which are substances to be analyzed, were subjected to quantitative analysis by the internal standard method using their respective stable isotopes S-(+)-MA5-d6 and R-(−)-MA5-d6. […] AD-3R (150×2.1 mm i.d., 3.0 μm particle size, manufactured by Daicel Corporation) was used as the analytical column, and CAPCELL C8UG120 (10×2.0 mm i.d., 5.0 μm particle size, manufactured by OSAKA SODA CO., LTD.) was used as the guard column. The column oven temperature was 35° C. Formic acid/water (0.1/100 [v/v]) (solution A)/acetonitrile (solution B) was used as the mobile phase, and the flow rate was 200 μL/min. The measurement was carried out under an isocratic condition in which a single composition of solution A/solution B (57/43 [v/v]) was used for elution. Solution A/solution B (57/43 [v/v]) was used until the analysis time reached 9.5 minutes, and solution A/solution B (10/90 [v/v]) was used after the analysis time reached 9.7 minutes. In addition, a system for washing the column with solution A/solution B (10/90 [v/v]) was incorporated while the analysis time elapsed was 9.7 minutes to 11.7 minutes, and the column was equilibrated with solution A/solution B (57/43 [v/v]) while the analysis time elapsed was 11.8 minutes to 15 minutes. The retention time was 6.95 minutes for S-(+)-MA5, 6.80 minutes for S-(+)-MA5-d6, 8.69 minutes for R-(−)-MA5, and 8.56 minutes for R-(−)-MA5-d6.
The MS conditions were detected in negative ion mode, a spray voltage set to 2.5 kV, a vaporizer temperature set to 250° C., and an ion transfer tube temperature set to 250° C. The precursor ion>product ion SRM channel was set to “m/z 328.0>116.2” for MA5 and “m/z 334.0>121.1” for MA5-d6. The collision energy for generating a product ion was set to 12 eV for MA5 and 17 eV for MA5-d6. Waveform analysis and quantitative calculation by the internal standard method were carried out by using Xcalibur (manufactured by Thermo Fisher Scientific Inc.).

[2] = test system: MT-ND3 mutant cell line; assay: Evaluation of ability to produce ATP in animal cells; type: cell-based, human; settings: 0.1 μM or 1 μM, cultured 6 hours, S(+) form versus R(−) form
Method: Hereinafter, the present invention will be described more specifically with reference to Examples, but the technical scope of the present invention is not limited to these Examples. The INS-1E cell line was cultured in an incubator (37° C., 21% O2, 5% CO2) in the presence of RPMI-1640 Medium (manufactured by GIBCO) containing 11.1 mM glucose, 10% FBS, 1 mM sodium pyruvate, 10 mM HEPES, 2 mM glutamine, 50 μM β-mercaptoethanol, penicillin at 100 U/mL, and streptomycin at 100 μg/mL (hereinafter simply referred to as “RPMI-1640 Medium”). […]
An MT-ND3 mutant cell line was seeded in a 96-well plate at 2×10^3 cells per well and cultured for 24 hours in the presence of DMEM Low Glucose culture medium, then 0.1% DMSO, which is a solvent for the compounds, or various concentrations (0.1 μM or 1 μM) of three compounds (racemic form of MA5, S(+) form of MA5, or R(−) form of MA5) were added, and the cells were cultured for 6 hours, and then the concentration of ATP produced in the culture medium was measured with GloMa 96 Microplate Luminometer (Promega Corporation) by using a “cellular” ATP measurement reagent (manufactured by TOYO B-Net Co., Ltd.).

[3] = test system: Rat fetal cardiomyoblast cells H9c2; assay: Effect of suppressing DNA damage caused by camptothecin (γH2AX immunostaining); type: cell-based; settings: camptothecin 10 μM plus compound 30 μM, cultured 24 hours
Method: Rat fetal cardiomyoblast cells H9c2 were maintained and cultured in a DMEM medium (10% FBS, penicillin at 100 units/mL, streptomycin at 100 μg/mL). Camptothecin (CPT) at a final concentration of 10 μM, CPT at a final concentration of 10 μM, and MA5 (racemic form, S(+) form, or R(−) form) at a final concentration of 30 μM, or DMSO (control) were added. The cells were cultured for 24 hours, then the medium was removed, and γH2AX (phosphorylated H2AX), which is an indicator for DNA damage, was detected by immunostaining. The immunostaining was carried out by using a mouse anti-γH2AX antibody (Thermo Fisher) as a primary antibody and a CF568-labeled goat anti-mouse IgG antibody (Biotium Inc.) as a secondary antibody.

[4] = cynomolgus monkey, read-out: AUC value

R(−) form of MA5 in plasma after administration of the S(+) form (chiral conversion in vivo) ([1]; 5 minutes to 24 hours after intravenous administration, cynomolgus monkeys)	half-life ([1]; cynomolgus monkey) [h]	AUC [1, 4] [ng·h/mL]	more likely to be retained in blood than the R(−) form of MA5 ([1]; from AUC values, intravenous 1 mg/kg, cynomolgus monkeys) [times]	AUC [1] [ng·h/mL]	ke [1] [h⁻¹]	Structure (SMILES)	level of ATP production [2]	fluorescence intensity of γH2AX (phosphorylated H2AX) [3]
not detected	2.4	30000	2.5	30000	0.29	O=C(C[C@H](C(=O)O)c1c[nH]c2ccccc12)c1ccc(F)cc1F [S(+) form of MA5, 4-(2,4-difluorophenyl)-2-(1H-indol-3-yl)-4-oxo-butanoic acid]	No difference was observed	a decrease in the fluorescence intensity of phosphorylated H2AX was observed; also recorded: the level of γH2AX was low
	1.1	12000		12000	0.63	O=C(C[C@@H](C(=O)O)c1c[nH]c2ccccc12)c1ccc(F)cc1F [R(−) form of MA5, 4-(2,4-difluorophenyl)-2-(1H-indol-3-yl)-4-oxo-butanoic acid]	No difference was observed	not observed
